SMILES strings stand for the structures.

The test system of data set [1] is PC-3. The data set can be described thus: Antiproliferative activity against human PC3 cells at 10 uM after 5 days. The class given is functional.
Data set [2] can be described thus: Partition coefficient, log P of the compound. The following applies: octanol/water. It counts as physicochemical.
For data set [3], the system named is PC-3. The data set can be described thus: Antiproliferative activity against human PC3 cells. It counts as functional, cell-based.

For orientation: logP means a log measure of how a compound divides between an organic and an aqueous phase. A high value points to higher lipophilicity. In general, IC50 refers to the concentration needed to halve the response being measured. Low readings indicate greater potency, high ones weaker potency. `COc1ccc(C2(c3ccc(C#N)c(C(F)(F)F)c3)NC(=O)N(c3ccc(C#N)c(C(F)(F)F)c3)C2=O)cc1` (configuration not stated) returned an Activity in data set [1] of 76%. Further, in data set [2], the logP amounted to 5.7. In addition, the half-inhibitory concentration (IC50) in data set [3] came out at 5.6 µM.

For `C[C@](O)(CS(=O)(=O)c1ccc(F)cc1)C(=O)Nc1ccc(C#N)c(C(F)(F)F)c1` [(R)-BICALUTAMIDE], the Activity in data set [1] was found to be 15%. This molecule also registered a logP in data set [2] of 3.4.

`CC1(C)NC(=O)N(c2ccc([N+](=O)[O-])c(C(F)(F)F)c2)C1=O` [NILUTAMIDE] displayed an Activity in data set [1] of 11%. Further, the logP in data set [2] stood at 3.2.

Source of the values: ChEMBL document CHEMBL1142360 (J Med Chem, 2008).
